“Also recorded” adds a separate entry of the source.
Assays:
TLR2 = molecular target: T1, TLR2 (Mus musculus, UniProt Q9QUN7); experiment: TLR-2 stimulation, SEAP activity in HEK-Blue mTLR2 cells; type: cell-based
T1 construct: host or cells: HEK293 (HEK-Blue mTLR2)
Protocol: TLR-2 stimulation. HEK293 cells stably co-transfected with mTLR2 and SEAP (HEK-Blue mTLR2 cells, InvivoGen) were cultivated in Dulbecco's Modified Eagle's Medium supplemented with 4.5 g/I glucose, 10% (v/v) fetal bovine serum, 100 U/ml penicillin, […], […], 2 mM L-glutamine. At 50-80% confluency, cells were seeded in Hek-Blue detection medium (InvivoGen) at a density of 50,000 cells/well in a 96-well plate containing NRs and controls. After 16 h incubation at 37° C. in 5% CO2, absorbance was monitored at 630 nm.

M2e = system: M2e; design: species or system BALB/c mice; conditions: mouse, in vivo, sc
[1] = system: influenza virus A/PuertoRico/8/34; design: species or system BALB/c mice; conditions: mouse, in vivo

T1 sequence (Q9QUN7 25-784): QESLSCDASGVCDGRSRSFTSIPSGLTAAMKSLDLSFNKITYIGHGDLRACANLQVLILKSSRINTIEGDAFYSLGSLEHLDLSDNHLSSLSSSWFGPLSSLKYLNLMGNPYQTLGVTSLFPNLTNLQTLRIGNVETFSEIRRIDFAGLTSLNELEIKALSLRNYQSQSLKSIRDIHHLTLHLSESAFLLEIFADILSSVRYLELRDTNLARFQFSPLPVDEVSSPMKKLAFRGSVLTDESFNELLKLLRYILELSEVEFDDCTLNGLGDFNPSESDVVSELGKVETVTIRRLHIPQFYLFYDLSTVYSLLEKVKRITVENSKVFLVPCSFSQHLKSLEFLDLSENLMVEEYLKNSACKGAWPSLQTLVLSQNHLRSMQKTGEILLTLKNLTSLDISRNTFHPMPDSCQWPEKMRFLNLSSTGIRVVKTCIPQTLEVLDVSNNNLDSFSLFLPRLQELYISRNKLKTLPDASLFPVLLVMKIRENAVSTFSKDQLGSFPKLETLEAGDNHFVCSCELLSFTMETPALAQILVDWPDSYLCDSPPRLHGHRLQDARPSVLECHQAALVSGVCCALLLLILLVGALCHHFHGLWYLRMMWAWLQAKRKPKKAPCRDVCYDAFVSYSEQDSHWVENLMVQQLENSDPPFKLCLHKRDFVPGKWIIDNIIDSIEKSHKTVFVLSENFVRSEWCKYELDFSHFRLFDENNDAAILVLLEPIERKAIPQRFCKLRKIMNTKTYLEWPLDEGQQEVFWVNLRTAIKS

SLLTEVETPIRNEWGSRSNGSSD [Peptide M2e]
SEAP activity (TLR2): no activity was measured | M2e-specific antibody response (IgG) (M2e): did not raise any significant level of epitope-specific IgG; also recorded: very low antibody response; also recorded: significant antibody titer | mortality [1]: 100%
